Data: US12290527B2, “Compositions and methods for reducing major thrombotic events in cancer patients” (Beth Israel Deaconess Medical Center, Inc., priority 2018, dated 2025)
Entries after “also recorded” stand apart in the source; their conditions may differ.

Tests used:
D-dimer = test: Plasma D-dimer (Asserachrom D-Di ELISA), phase II trial in cancer patients; assay type: in vivo, human
Protocol: A multi-center, multi-dose phase II trial was conducted to evaluate, among other markers and readouts, the efficacy of targeting protein disulfide isomerase (PDI) along with soluble P-selectin with isoquercetin to reduce the hypercoagulability in cancer patients at high risk for venous thromboembolism (VTE). Patients received isoquercetin at 500 mg (cohort A) or 1000 mg (cohort B) daily for 56 days with laboratory assays at the beginning and at completion of study (along with duplex ultrasound). The primary endpoint was a reduction in D-dimer and the primary clinical endpoint included pulmonary embolism or proximal deep vein thrombosis, and also included measuring the level of soluble P-selectin. (See, Zwicker et al., JCI Insight.2019; 4(4):e125851.)
The primary endpoint of the study was comparison of plasma D-dimer at baseline and end-of-study. D-dimer is liberated from cross-linked fibrin following […] degradation. D-dimer is the most validated and commonly utilized laboratory assay in the clinic to detect deep vein thrombosis. In patients with advanced cancer, plasma D-dimer levels are commonly elevated and correlate with an increased risk for developing of VTE.
Participants were sequentially enrolled into two dosing cohorts: Cohort A (isoquercetin 500 mg) and Cohort B (isoquercetin 1000 mg). Isoquercetin was supplied in capsules containing 250 mg of isoquercetin each with 10 mg added as overage to guarantee a minimum of 250 mg of isoquercetin per capsule with added Vitamin C and Vitamin B3 by Quercegen Pharmaceuticals LLC (Boston, MA). The drug product capsules were manufactured by Pharmavize NV, Kleinmoer 4, 9030 Mariakerke, Belgium.
The ratio of components in the capsules was: 1:0.25:0.02 of isoquercetin, vitamin C, and vitamin B3, respectively. It is noted that folic acid can optionally be present in the isoquercetin composition. Isoquercetin was taken orally daily for a total of 56 days. The first 5 patients of each cohort were monitored for evidence of toxicity prior (≥1 grade 3 or higher toxicity possibly related to isoquercetin) prior to the subsequent enrollment of 25 patients into each cohort. Patients were monitored for development of a venous thromboembolic event throughout the study including a bilateral lower extremity duplex ultrasound at end of study visit (day 56±5). […]
Blood was drawn by peripheral venipuncture into 3.2% citrate. […] D-dimer was measured centrally using Asserrachrom D-Di ELISA, considered the reference standard assay for D-dimer (Stago, France) (Meyer G. et al., Blood Coagulation & Fibrinolysis. 1998; 9(7):603-8.).

[1] = isoquercetin at 500 mg; prior pharmacokinetic studies; cited from earlier work
[2] = test system: patients with advanced cancer; test: Venous thromboembolism monitoring (clinical and end-of-study lower extremity ultrasound); assay type: in vivo, human
Description: Patients were monitored for the development of venous thromboembolism (VTE) throughout the two months of the study including an end-of-study bilateral lower extremity ultrasound to evaluate for asymptomatic lower extremity proximal DVT. Shown in FIG. 3A-FIG. 3D is the proportion of patients remaining free of VTE through the course of the study. […] There were three secondary VTE endpoints recorded in cohort A (FIG. 3C, two incidental catheter-associated DVT diagnosed with re-staging imaging and one lower extremity superficial venous clot). In cohort B (FIG. 3D), there were two secondary endpoint thrombotic events recorded (superficial venous clot of the lower extremity and incidental thrombosis observed in a lingular pulmonary vein on re-staging imaging).
(§1) The ratio of components in the capsules was: 1:0.25:0.02 of isoquercetin, vitamin C, and vitamin B3, respectively. It is noted that folic acid can optionally be present in the isoquercetin composition. Isoquercetin was taken orally daily for a total of 56 days. The first 5 patients of each cohort were monitored for evidence of toxicity prior (≥1 grade 3 or higher toxicity possibly related to isoquercetin) prior to the subsequent enrollment of 25 patients into each cohort. Patients were monitored for development of a venous thromboembolic event throughout the study including a bilateral lower extremity duplex ultrasound at end of study visit (day 56±5). Participants were taken off study if they developed an intercurrent illness that prevented further administration; unacceptable adverse events; poor compliance; participant preference; VTE or condition requiring therapeutic anticoagulation; requirement for prophylactic anticoagulation for >7 consecutive days; or grade ≥3 hemorrhage or otherwise met the ISTH criteria for major hemorrhage. Doses were held for grade 2 hemorrhage or platelet count <50×10^9/L.
The primary VTE endpoint included any symptomatic proximal or distal deep vein thrombosis, symptomatic PE or fatal PE diagnosed by autopsy, asymptomatic proximal DVT diagnosed by protocol-specified ultrasound at end of study. All suspected VTE were assessed by an independent adjudication committee that included central radiologic review of images. Criteria for new VTE included any of the following: A) A new noncompressibility of lower extremity deep venous segments by compression ultrasound (distal lower extremity thrombus qualified for primary VTE endpoint only if symptomatic). […] All other venous or arterial events were recorded and analyzed as secondary endpoints. […]

[3] = test system: prothrombin time and partial thromboplastin time; test: Standard coagulation assays (prothrombin time, partial thromboplastin time); assay type: in vivo, human
Protocol: (§2) Measurement of soluble P-selectin (CD62) was performed centrally using a commercial ELISA (Invitrogen/ThermoFisher Scientific #BMS219-4) and prothrombin time and partial thromboplastin time according to standard manufacturer protocol on a Sago Start 4 instrument (STA-Neoplastine CI Plus 5 #00606, STA-PTT Automate 5 #00595).

[4] = test system: patients with advanced cancer; test: Safety: hemorrhage (ISTH) and toxicities (CTCAE) in phase II trial; assay type: in vivo, human
Description: as §1
The primary VTE endpoint included any symptomatic proximal or distal deep vein thrombosis, symptomatic PE or fatal PE diagnosed by autopsy, asymptomatic proximal DVT diagnosed by protocol-specified ultrasound at end of study. All suspected VTE were assessed by an independent adjudication committee that included central radiologic review of images. Criteria for new VTE included any of the following: A) A new noncompressibility of lower extremity deep venous segments by compression ultrasound (distal lower extremity thrombus qualified for primary VTE endpoint only if symptomatic). B) Intraluminal defects in two or more views on pulmonary angiography, sudden contrast cut-off of one or more vessels greater than 2.5 mm in diameter on a pulmonary angiogram; a high probability VQ lung scan showing one or more segmental perfusion defects with corresponding normal ventilation (mismatch defect); or abnormal spiral CT showing thrombus in pulmonary vessels (subsegmental or larger). All other venous or arterial events were recorded and analyzed as secondary endpoints. Criteria for major hemorrhage was according to ISTH definition (Schulman S, and Kearon C. J Thromb Haemost. 2005; 3(4):692-4). All toxicities were graded according NCI Common Terminology Criteria for Adverse Events (CTCAE). Study oversight was performed by an independent Data Safety Monitoring Committee at Dana Farber Harvard Cancer Center.

soluble P-selectin [5] = test: Soluble P-selectin (CD62) in plasma, commercial ELISA; assay type: in vivo, human; settings: for median change in soluble P-selectin: end-of-treatment vs baseline plasma
Description: P-selectin is a transmembrane adhesion receptor that is externalized from α-granules in platelets and Weibel-Palade bodies in endothelial cells following cell activation. P-selectin can be shed from the cell surface following externalization and P-selectin shedding is increased in cardiovascular disease, sepsis, and cancer. […] As PDI inhibition alters platelet and endothelial reactivity, baseline versus end-of-treatment plasma levels of soluble P-selectin following treatment with isoquercetin was compared. As shown in FIG. 6A-FIG. 6B, there was no change in soluble P-selectin in Cohort A (FIG. 6A) (median change −0.3%, P=0.26).
as §2

[6] = test system: platelet-dependent thrombin generation; test: Platelet-dependent thrombin generation assay on patient plasma; assay type: in vivo, human; settings: follow-up vs baseline
Description: The platelet-dependent thrombin generation assay measures thrombin generation following platelet activation and requires PDI. […] Correlation between PDI inhibitory activity in plasma and platelet-dependent thrombin generation confirmed the PDI-dependency of thrombin generation (Spearman coefficient 0.29, P=0.004). There was significant correlation between increased plasma PDI inhibitory activity and decreased thrombin generation (Pearson correlation coefficient 0.45, P=0.002)
Platelet-dependent thrombin generation was performed according to previously published methodology (Stopa J D et al., JCI insight. 2017;2(1):e89373; Jurk K et al. J Thromb Haemost. 2011; 9(11):2278-90). Briefly, platelet-free plasma was mixed with donor platelet-rich plasma diluted to a platelet concentration of 250,000 platelets per microliter in the presence of 5 mM GPRP and 6 mM CaCl2), and then stimulated with 0.1 U/ml of thrombin. Samples were incubated for 90 min at room temperature with rotation, and thrombin levels were measured using cleavage of a fluorescent thrombin-specific substrate (Haemtech SN-20 Boc-L-FPR-ANSNH-C2H5) by excitation at 352 nm and emission as a function of time at 470 nm. Rates of substrate cleavage were used to calculate the concentration of thrombin in each sample.

soluble P-selectin [7] = settings: standard anticoagulants compared in words; cited from earlier work
[8] = Cohort A, isoquercetin 500 mg daily
[9] = Cohort B, isoquercetin 1000 mg daily

Compound: O=c1c(O[C@@H]2O[C@H](CO)[C@@H](O)[C@H](O)[C@H]2O)c(-c2ccc(O)c(O)c2)oc2cc(O)cc(O)c12 [isoquercetin, 2-(3,4-Dihydroxyphenyl)-5,7-dihydroxy-3-[(2S,3R,4S,5S,6R)-3,4,5-trihydroxy-6-(hydroxymethyl)oxan-2-yl]oxychromen-4-one]
- individuals with reduced D-dimer (D-dimer; Cohort B, 1000 mg daily, paired samples): 18 of 22
- median change in D-dimer (D-dimer; Cohort B, isoquercetin 1000 mg daily oral, 56 days, baseline vs end-of-study, cancer patients): −21.9%
- median decrease of D-dimer plasma concentrations (D-dimer; isoquercetin 1000 mg daily, 56 days, printed as decrease without sign): 21.9%
- reduction of D-dimer levels (in words) (D-dimer; lower dose, isoquercetin 500 mg): did not reduce D-dimer levels
- plasma concentrations relative to IC50 of PDI activity in vitro [1]: fall below the inhibitory concentration (IC50) of PDI activity in vitro
- secondary VTE endpoints recorded ([2]; Cohort A, 500 mg daily, two catheter-associated DVT, one superficial venous clot): three
- secondary endpoint thrombotic events recorded ([2]; Cohort B, 1000 mg daily, superficial venous clot, lingular pulmonary vein thrombosis): two
- primary VTE endpoint events ([2]; both cohorts (500 mg and 1000 mg daily), 2-month study): no VTE that met criteria for the primary VTE endpoint; also recorded: no primary VTE endpoints observed
- proximal deep vein thrombosis, pulmonary emboli, or major hemorrhage observed ([2]; treated patients, cancer population at higher risk for thrombosis and hemorrhage): none of the following were observed
- mean PT at 2-months ([3]; Cohort A, 500 mg daily, baseline 14.0 seconds): 14.3 s
- mean PTT at study completion ([3]; Cohort A, 500 mg daily, baseline 49.6 seconds): 45.6 s
- mean PT at 2-months ([3]; Cohort B, 1000 mg daily, baseline 15.1 seconds): 15.2 s
- mean PTT at 2-months ([3]; Cohort B, 1000 mg daily, baseline 54.2 seconds): 51.9 s
- effects in standard coagulation assays (in words) ([3]; following administration of isoquercetin, both cohorts): no effects detected
- patients developing grade 1 epistaxis ([4]; Cohort A, 500 mg daily): One
- patients developing non-severe gastrointestinal bleeding ([4]; Cohort B, 1000 mg daily, grade 1 hemorrhoid and grade 2 rectal bleeding): two
- severe adverse events (grade 3 or 4) attributed to isoquercetin ([4]; both cohorts): no severe adverse events (grade 3 or 4); also recorded: No grade 3 or 4 toxicities were reported
- major hemorrhages ([4]; both cohorts, modified intention-to treat analyses): no major hemorrhages observed
- most commonly reported toxicities on study ([4]; common toxicities of the concurrent chemotherapeutics): nausea and diarrhea
- deaths during the 2 months of follow-up ([4]; following initiation of isoquercetin): no deaths reported
- median change in soluble P-selectin (soluble P-selectin [5]; [8]): −0.3%
- patients with decreased soluble P-selectin (in words) (soluble P-selectin [5]; [9]): decreased in all patients except one
- median change in soluble P-selectin (soluble P-selectin [5]; [9]): −57.9%
- median change in platelet-dependent thrombin generation [6, 8]: −31.1%
- median change in platelet-dependent thrombin generation [6, 9]: −57.2%

Compound: O=C(NC[C@H]1CN(c2ccc(N3CCOCC3=O)cc2)C(=O)O1)c1ccc(Cl)s1 [rivaroxaban]
- lowering of soluble P-selectin levels (activity shared with isoquercetin or not) (soluble P-selectin [7]): not shared

Compound: CC(=O)CC(c1ccccc1)c1c(O)c2ccccc2oc1=O (stereo not drawn) [warfarin]
- lowering of soluble P-selectin levels (activity shared with isoquercetin or not) (soluble P-selectin [7]): not shared
